Experimental data: paper PMC10227015, “From a drug repositioning to a structure-based drug design approach to tackle acute lymphoblastic leukemia” (Nature Communications, 2023)
Like-named read-outs stand apart in the source and are kept apart here.

Legend:
CCRF-CEM cell line = experiment: dCK cellular assay: CCRF-CEM proliferation in the presence of dT and dC; assay type: cell-based, human; details: Homo sapiens
In short: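 Two conditions in T-ALL CCRF-CEM cells: compound only, and compound with thymidine blocking de novo synthesis and deoxycytidine rescuing via dCK. Metabolic dye fluorescence (560/590 nm) gives % proliferation vs DMSO; IC50s, mean ± SD of at least three triplicate runs.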

dCK-C3S-S74E [1] = experiment: Thermal shift assay (TSA)
Sequence of dCK-C3S-S74E (P27707 whole entry S74E, form open): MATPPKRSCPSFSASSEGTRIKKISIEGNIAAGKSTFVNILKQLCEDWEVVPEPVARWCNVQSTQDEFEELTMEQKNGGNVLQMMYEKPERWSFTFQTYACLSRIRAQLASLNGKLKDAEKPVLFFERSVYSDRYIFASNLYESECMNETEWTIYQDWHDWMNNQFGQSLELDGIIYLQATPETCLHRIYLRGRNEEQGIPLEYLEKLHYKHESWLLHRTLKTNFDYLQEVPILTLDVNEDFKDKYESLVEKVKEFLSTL

dCK-C3S-S74E [2] = experiment: Enzymatic assay (PK/LDH coupled), dC phosphorylation by dCK in the presence of ATP; assay type: biochemical, human
In short: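 Continuous PK/LDH-coupled readout tracked NADH fluorescence loss at 460 nm while 1 mM ATP and 100 µM dC were turned over by 100 nM (or 50 nM) dCK-C3S-S74E in HEPES pH 7.5 buffer with MgCl2, DTT and KCl. Linear-range slopes normalized to no-compound control; IC50 fitted by nonlinear regression across compound concentrations.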

CCCN(c1nc(-c2nc(N)cc(N)n2)cs1)c1cc(-c2ccc(S(=O)(=O)N3CCN(C)CC3)c(OC)c2)ccc1C [OR0635]
activity at 0.00017 µM (CCRF-CEM cell line; CCRF-CEM, 0.17 nM, dT 200 µM + dC 1 µM, read-out: Cell proliferation of the CCRF-CEM cell line Mean (% prolif)): 97% | activity at 0.0005 µM (CCRF-CEM cell line; CCRF-CEM, 0.5 nM, dT 200 µM + dC 1 µM, read-out: Cell proliferation of the CCRF-CEM cell line Mean (% prolif)): 85.1% | activity at 0.0015 µM (CCRF-CEM cell line; CCRF-CEM, 1.5 nM, dT 200 µM + dC 1 µM, read-out: Cell proliferation of the CCRF-CEM cell line Mean (% prolif)): 74.1% | activity at 0.0046 µM (CCRF-CEM cell line; CCRF-CEM, 4.6 nM, dT 200 µM + dC 1 µM, read-out: Cell proliferation of the CCRF-CEM cell line Mean (% prolif)): 62.3% | activity at 0.014 µM (CCRF-CEM cell line; CCRF-CEM, 14 nM, dT 200 µM + dC 1 µM, read-out: Cell proliferation of the CCRF-CEM cell line Mean (% prolif)): 48.1% | activity at 0.041 µM (CCRF-CEM cell line; CCRF-CEM, 41 nM, dT 200 µM + dC 1 µM, read-out: Cell proliferation of the CCRF-CEM cell line Mean (% prolif)): 35.9% | activity at 0.123 µM (CCRF-CEM cell line; CCRF-CEM, 123 nM, dT 200 µM + dC 1 µM, read-out: Cell proliferation of the CCRF-CEM cell line Mean (% prolif)): 24.4% | activity at 0.37 µM (CCRF-CEM cell line; CCRF-CEM, 370 nM, dT 200 µM + dC 1 µM, read-out: Cell proliferation of the CCRF-CEM cell line Mean (% prolif)): 17.8% | activity at 1.111 µM (CCRF-CEM cell line; CCRF-CEM, 1111 nM, dT 200 µM + dC 1 µM, read-out: Cell proliferation of the CCRF-CEM cell line Mean (% prolif)): 14.8% | activity at 3.333 µM (CCRF-CEM cell line; CCRF-CEM, 3333 nM, dT 200 µM + dC 1 µM, read-out: Cell proliferation of the CCRF-CEM cell line Mean (% prolif)): 10.3% | IC50 (CCRF-CEM cell line; read-out: dCK CELLULAR ASSAY IC50 (nM), CCRF-CEM, 200 µM dT and 1 µM dC, read-out: dCK […] ASSAY IC50): 15.4 ± 10 nM | IC50 (CCRF-CEM cell line; CCRF-CEM, dT 200 µM + dC 1 µM, 72 h, read-out: IC50 cell proliferation (dCK cellular assay)): 15 nM | IC50 (CCRF-CEM cell line; Figure 2a, CCRF-CEM cell line, mean, read-out: IC50 (nM) (Cell Prolif)): 14 nM | ΔTm, dCK thermal stabilization (TSA) (dCK-C3S-S74E [1]; 5 μM protein, 50 μM compound): 20.4 °C | ΔTm (º) (TSA) (dCK-C3S-S74E [1]; Figure 2a, mean): 20.4 º | Thermal Shift Assay Mean (ΔTm (º)) (dCK-C3S-S74E [1]; Figure 2b): 20.7 º | THERMAL SHIFT ASSAY +Tm (°) (dCK-C3S-S74E [1]; mean ± SD): 20.40 ± 0.9 ° | Enzymatic activity (ATP) Mean (% activity) (dCK-C3S-S74E [2]; 0.01 µM): 71.4% | Enzymatic activity (ATP) Mean (% activity) (dCK-C3S-S74E [2]; 0.02 µM): 74.5% | Enzymatic activity (ATP) Mean (% activity) (dCK-C3S-S74E [2]; 0.04 µM): 82.4% | Enzymatic activity (ATP) Mean (% activity) (dCK-C3S-S74E [2]; 0.08 µM): 61.6% | Enzymatic activity (ATP) Mean (% activity) (dCK-C3S-S74E [2]; 0.16 µM): 15.4% | Enzymatic activity (ATP) Mean (% activity) (dCK-C3S-S74E [2]; 0.31 µM): 4.7% | Enzymatic activity (ATP) Mean (% activity) (dCK-C3S-S74E [2]; 0.63 µM): 4.6% | Enzymatic activity (ATP) Mean (% activity) (dCK-C3S-S74E [2]; 1.25 µM): 2.0% | Enzymatic activity (ATP) Mean (% activity) (dCK-C3S-S74E [2]; 2.5 µM): 1.6% | IC50 (dCK-C3S-S74E [2]; presence of ATP, [dCK] = 50 nM (footnote A), read-out: ENZYMATIC ASSAY IC50): 66 ± 11 nM
